Test results from BindingDB's records for doi:10.1021/ml2001455 (2011).

Tests used:
[1] = biological target: T1, Mitogen-activated protein kinase 14 (Homo sapiens, UniProt Q16539); test: Inhibition of p38alpha in human PBMC assessed as inhibition of LPS-induced IL1beta production after 16 to 18 hrs by ELISA
[2] = biological target: T1, Mitogen-activated protein kinase 14; test: Inhibition of p38alpha in human PBMC assessed as inhibition of LPS-induced TNFalpha production after 16 to 18 hrs by ELISA
[3] = biological target: T1, Mitogen-activated protein kinase 14; test: Inhibition of p38alpha kinase using KRELVEPLTPSGEAPNQALLR as substrate for 20 mins by lactate dehydrogenase-coupled spectrophotometric assay

T1 sequence (Q16539 whole entry): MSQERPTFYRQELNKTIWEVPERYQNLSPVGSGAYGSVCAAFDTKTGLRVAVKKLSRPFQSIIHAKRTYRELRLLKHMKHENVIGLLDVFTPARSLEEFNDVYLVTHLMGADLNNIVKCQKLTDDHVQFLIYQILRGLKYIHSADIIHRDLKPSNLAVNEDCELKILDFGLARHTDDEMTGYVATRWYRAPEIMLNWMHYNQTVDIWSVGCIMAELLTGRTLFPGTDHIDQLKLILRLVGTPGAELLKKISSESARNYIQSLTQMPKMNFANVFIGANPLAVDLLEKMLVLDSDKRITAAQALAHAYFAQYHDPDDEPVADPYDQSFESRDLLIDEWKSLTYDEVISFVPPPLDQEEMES

| Structure (SMILES) | IC50 [1] [µM] | IC50 [2] [µM] | IC50 [3] [µM] |
| --- | --- | --- | --- |
| O=c1ncn2nc(Sc3ccccc3)ccc2c1-c1ccc(Cl)c(Cl)c1 | > 20 | > 20 | > 20 |
| COc1ccccc1-c1c(=O)ncn2nc(Sc3ccccc3)ccc12 | – | > 20 | – |
| COc1ccc(-c2c(=O)ncn3nc(Sc4ccccc4)ccc23)cc1 | – | > 20 | > 20 |
